From patent US10189782B2, “Derivatives of indole for the treatment of cancer, viral infections and lung diseases” (BIOKINESIS, priority 2012, dated 2019)

Columns and labels:
[1] = tested on: human colon carcinoma HCT-116 xenografts; test: Anti-tumor activity in nude mice bearing subcutaneous human colon carcinoma HCT-116 xenografts; format: in vivo; details: for Antitumor activity (tumor volume, FIG. 3): HCT-116 xenograft bearing nude mice, cisplatin 4 mg/kg, compound 38 37.5 mg/kg; for Antitumor activity (tumor volume, FIG. 3) / MBWC D 0-D 4 (mean body weight change) / MBWC D 0-D 7 (mean body weight change) / MBWC D 0-D 10 (mean body weight change) / MBWC D 0-D 14 (mean body weight change) / MBWC D 0-D 17 (mean body weight change) / MBWC D 0-D 21 (mean body weight change) / MBWC D 0-D 24 (mean body weight change) / MBWC D 0-D 28 (mean body weight change): i.p.; for MBWC D 0-D 4 (mean body weight change) / MBWC D 0-D 7 (mean body weight change) / MBWC D 0-D 10 (mean body weight change) / MBWC D 0-D 14 (mean body weight change) / MBWC D 0-D 17 (mean body weight change) / MBWC D 0-D 21 (mean body weight change) / MBWC D 0-D 24 (mean body weight change) / MBWC D 0-D 28 (mean body weight change): HCT-116 xenograft nude mice, Cisplatin 4 mg/kg, Cpd 38 37.5 mg/kg, starting MBW 21 g
Experimental: The effects of one compound of the invention were studied on the tumor growth of human cancer cells in nude mice. […] The induction in nude mice was realized by subcutaneous injection in the right flank of each mouse of 10×10^6 HCT-116 cells in 200 μl serum-free medium. When the tumor volume reached 130 mm^3, mice were randomized in to 3 groups (10 mice/group).
Mice of group 2 were treated by intraperitoneal injection of cisplatin (diluted in NaCl 0.9%) at 4 mg/kg according to the treatment schedule 1Q3Dx3.
The body weight and tumor volume of mice were recorded twice a week until the end of the experiment.

[2] = biological target: T1, Human recombinant MKlp2 motor domain1-519, His tagged (Homo sapiens, UniProt O95235); test: Microtubule stimulated ATPase activity of the MKlp2 motor domain (Kinesin ELIPA Assay Kit); format: biochemical; details: Table 3, 22° C., read-out: MKIp2 IC50
T1 construct: Human recombinant MKlp2 motor domain1-519, His tagged; His; purchased Cytoskeleton MP05
T1 sequence (O95235 1-519): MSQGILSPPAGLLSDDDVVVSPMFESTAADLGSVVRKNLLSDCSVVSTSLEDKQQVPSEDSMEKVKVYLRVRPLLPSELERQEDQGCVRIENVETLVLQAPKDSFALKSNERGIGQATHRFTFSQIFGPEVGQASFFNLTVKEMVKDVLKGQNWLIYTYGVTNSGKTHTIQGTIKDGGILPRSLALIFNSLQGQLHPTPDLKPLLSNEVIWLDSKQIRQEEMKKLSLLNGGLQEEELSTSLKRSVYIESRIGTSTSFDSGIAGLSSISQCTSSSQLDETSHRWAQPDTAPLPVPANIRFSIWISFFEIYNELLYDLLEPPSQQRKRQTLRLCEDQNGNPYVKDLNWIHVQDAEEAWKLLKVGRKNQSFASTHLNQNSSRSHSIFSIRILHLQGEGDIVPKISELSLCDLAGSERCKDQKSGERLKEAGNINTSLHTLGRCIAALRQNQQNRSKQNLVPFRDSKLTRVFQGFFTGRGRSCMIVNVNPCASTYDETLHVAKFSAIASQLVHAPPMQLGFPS
Method in brief: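 Microtubule-stimulated ATPase at 22° C, with free phosphate followed in real time by MESG/PNP coupled absorbance at 360 nm. Motor mix in Pipes-NaOH pH 7.0, MgCl2, 30 μM Tx with porcine brain microtubules; reaction started with 5 mM ATP stock at 20% of volume. Kinetic read: 21 readings, 30 s apart.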

[3] = tested on: K562 cells; test: Cytotoxicity on human cancer cells (WST-1), K562; format: cell-based; details: Table 4, K562 leukaemia cells, WST-1 on D4, read-out: K562 IC50
Experimental: (§1) Evaluation of Cytotoxicity Effects on Human Cancer Cells
(§2) The effects of the compounds of the invention on the viability of human cancer cells were studied on various human cancer cell lines of differing tissue origins (A549, NCI-H460: lung cancer; MDA-MB-231: breast cancer; HCT-116, HT-29: colon cancer; MIA-PaCa-2: pancreatic cancer; K562: leukaemia). All cell lines were obtained from ATCC or ECACC. Cells were cultured in the culture media described below, under a 37° C., 5% CO2 humidified atmosphere, according to a standard operating procedure.
(§3) On D0, the cells were plated in 90 μl in 96 wells plates at densities ranging from 500 to 5,000 cells per well.
(§4) Following addition of the test substance the cells were protected from light. The solvents (DMSO and specific control solvent were added at the maximal concentration: 10 μl/well (3 wells/condition)).
(§5) On D4, the Cell Proliferation Reagent WST-1 was added to each well (10 μl/well), according to a standard operating procedure. The cells were then incubated for 30 min to 4 h at 37° C.-5% CO2. After these incubations, the 96-well plates were shaken thoroughly for 1 min with Multiskan® EX apparatus (Thermo Labsystems, France). The absorbence was measured at 450 nm, the reference wavelength being 620 nm. The analysis of the results was performed with the Ascent software 2.6 (Thermo Labsystems, France), Microsoft Excel 2003 and GraphPad Prism 4.03 softwares to give the concentration of the compounds that induces the death of 50% of the cells (IC50).

[4] = tested on: HCT-116; test: Cytotoxicity on human cancer cells (WST-1), HCT-116; format: cell-based; details: HCT-116 colon cancer cells, WST-1 on D4
Experimental: as §1, §2
HCT-116: Mc Coy's 5a+10% FBS+0.5 mM Ultraglutamine
as §3, §4
(§6) On D4, the Cell Proliferation Reagent WST-1 was added to each well (10 μl/well), according to a standard operating procedure. The cells were then incubated for 30 min to 4 h at 37° C.-5% CO2. After these incubations, the 96-well plates were shaken thoroughly for 1 min with Multiskan® EX apparatus (Thermo Labsystems, France). The absorbence was measured at 450 nm, the reference wavelength being 620 nm. […]

[5] = tested on: MDA-MB-231; test: Cytotoxicity on human cancer cells (WST-1), MDA-MB-231; format: cell-based; details: MDA-MB-231 breast cancer cells, WST-1 on D4
Experimental: as §1, §2, §3, §4, §5

[6] = tested on: MIA-PaCa-2; test: Cytotoxicity on human cancer cells (WST-1), MIA-PaCa-2; format: cell-based; details: MIA-PaCa-2 pancreatic cancer cells, WST-1 on D4
Experimental: as §1, §2, §3, §4, §5

[7] = tested on: NCI-H460; test: Cytotoxicity on human cancer cells (WST-1), NCI-H460; format: cell-based; details: NCI-H460 lung cancer cells, WST-1 on D4, read-out: IC50 (μM) NCIH460
Experimental: as §1, §2
NCI-H460: RPMI 1640+10% FBS+10 mM HEPES+1 mM Sodium pyruvate+2.5 g/l glucose
as §3, §4, §6

[8] = tested on: human large lung carcinoma NCI-H460 xenografts; test: Anti-tumor activity in nude mice bearing subcutaneous human large cell lung carcinoma NCI-H460 xenografts; format: in vivo
Experimental: In-Vivo Evaluation of Anti-Tumor Activity of Compound 38 in Nude Mice Bearing Subcutaneous Human Large Cell Lung Carcinoma NCI-11460 Xenografts Protocol:
The effects of one compound of the invention were studied on the tumor growth of human cancer cells in nude mice. The human large lung carcinoma NCI-H460 cell line was obtained from ATCC. The induction in nude mice was realized by subcutaneous injection in the right flank of each mouse with 5×10^6 NCI-H460 cells in 200 μl serum-free medium. When the tumor volume reached 80 mm^3, mice were randomized in 2 groups (10 mice/group).
Mice of group 1 were treated by intraperitoneal injection of vehicle (solutol HS15 at 38% in NaCl 0.9%) according to the treatment schedule 1Q1Dx17.
Mice of group 2 were treated by intraperitoneal injection of compound 38 (diluted in solutol HS15 at 38% in NaCl 0.9%) at 37.5 mg/kg according to the treatment schedule 1Q1Dx17.
The tumor volume was recorded twice a week until the end of the experiment.

[9] = NCI-H460 xenograft nude mice, i.p. 37.5 mg/kg 1Q1Dx17, starting MBW 21 g

Compound | Antitumor activity (tumor volume, FIG. 3) [1] | MBWC D 0-D 4 (mean body weight change) [1] [g] | MBWC D 0-D 7 (mean body weight change) [1] [g] | MBWC D 0-D 10 (mean body weight change) [1] [g] | MBWC D 0-D 14 (mean body weight change) [1] [g] | MBWC D 0-D 17 (mean body weight change) [1] [g] | MBWC D 0-D 21 (mean body weight change) [1] [g] | MBWC D 0-D 24 (mean body weight change) [1] [g] | MBWC D 0-D 28 (mean body weight change) [1] [g] | IC50 [2] [nM] | IC50 [3] [nM] | IC50 [4] [µM] | IC50 [5] [µM] | IC50 [6] [µM] | IC50 [7] [µM] | also measured
N.N.[Cl][Pt][Cl] [Cisplatin, cisplatin, reference compound] | Antitumor activity was observed | -1.1 | -2.54 | -3.33 | -2.22 | -1.26 | -0.38 | -0.02 | -0.1 | – | – | – | – | – | – | –
COc1ccncc1/C=C(\C#N)c1c[nH]c2ccc(Br)cc12 [Example 5, (Z)-2-(5-bromo-1H-indol-3-yl)-3-(4-methoxypyridin-3-yl)acrylonitrile] | – | – | – | – | – | – | – | – | – | 50 | 800 | 0.7 | 1.7 | 0.7 | 0.9 | –
COc1ccc(C#N)cc1/C=C(\C#N)c1c[nH]c2ccc(Br)cc12 [Example 38, (Z)-3-(2-(5-bromo-1H-indol-3-yl)-2-cyanovinyl)-4-methoxybenzonitrile] | Antitumor activity was observed | -1.04 | -0.76 | -1.08 | -1.57 | -1.58 | -1.43 | -1.83 | -2.54 | 200 | 30 | 0.06 | 0.07 | 0.04 | 0.04 | Tolerability of treatment ([1]; mouse, in vivo, ip, 37.5 mg/kg): well tolerated; Antitumor activity (tumor volume, FIG. 4) ([8]; NCI-H460 xenograft bearing nude mice, 37.5 mg/kg i.p.): Antitumor activity was observed; MBWC D 0-D 3 (mean body weight change) [8, 9]: -0.96 g; MBWC D 0-D 4 (mean body weight change) [8, 9]: -1.76 g; MBWC D 0-D 7 (mean body weight change) [8, 9]: -1.82 g; MBWC D 0-D 10 (mean body weight change) [8, 9]: -2.12 g; MBWC D 0-D 14 (mean body weight change) [8, 9]: -1.83 g; MBWC D 0-D 17 (mean body weight change) [8, 9]: -1.55 g; Tolerability of treatment ([8]; nude mice bearing NCI-H460 xenograft, 37.5 mg/kg i.p.): well tolerated
